For data set [1] the following is noted: amide bond, HATU, dichloromethane, 25.0 °C, 16.0 h.
A further data set concerns the target CDK4/D3 (Homo sapiens, UniProt P11802). The experiment in a line: Inhibitory activity on CDK4 kinase by Caliper Mobility Shift method. Particulars: CDK4/D3, 28° C. for 5 hours. The data set is classed as biochemical. As for the experimental part:
Determination of Inhibitory Effect on CDK4/Cyclin D1
The determination of IC50 of CDK4/Cyclin D1 was conducted according to the following process. A 96-well filter plate (Millipore MADVN6550) was used. The total volume was 0.1 ml, containing buffer solution A (20 mM TRIS (tris[hydroxymethyl]aminomethane) (pH7.4), 50 mM NaCl, 1 mM dithiothreitol, 10 mM MgCl2), 2 μM ATP (containing […][32P]ATP), 20 ng CDK4, […] retinoblastoma protein and the test compound diluted in buffer solution A in an appropriate ratio. Buffer solution A alone without the test compound was used as the control without inhibitory effect. Buffer solution A containing excess EDTA was used to determine the background 32P level in the absence of enzymatic activity. All components except ATP were added to the wells, and the plate was shaked on a plate mixer for 2 minutes. [32P]ATP was added to initiate the reaction, and the plate was incubated at 25° C. for 15 minutes. 0.1 ml of 20% trichloroacetic acid (TCA) was added to stop the reaction. The plate was kept at 4° C. for at least 1 hour to allow the substrate to precipitate. The wells were washed five times with 0.2 ml of 10% TCA, and the binding of 32P was measured using a R plate counter (wallac Inc., Gaithersburg, Md.). IC50 of the test compound was determined by median effect method (Chou, T-C and Talalay P. Applications of the median effect principle for the assessment of low-dose risk of carcinogens and for the quantitation of synergism and antagonism of chemotherapeutic agents. In New Avenues in Developmental Cancer Chemotherapy (Eds. Harrap, K. T. and Connors, T. A.), pp. 37-64. Academic Press, New York, 1987).
(§1) Experimental method: Inhibitory activity on CDK4/6 kinase was determined by Caliper Mobility Shift method
1) Preparation of 1-fold CDK4 kinase buffer solution
800 μL of 1000 mM HEPES stock solution (pH 7.5) and 40 μL of 10% Triton X-100 stock solution were added to 39160 μL of ultra pure water, and the resulting solution was mixed well.
(§2) 25 mL of 4% Coating Reagent #3 (provided with the 12-sipper chip used in Caliper device) stock solution, 50 mL of 1000 mM HEPES stock solution (pH 7.5), 50 mL of 0.5 M EDTA stock solution and 0.25 mL of 30% Brij-35 stock solution were added to 374.75 mL of ultra pure water, and the resulting solution was mixed well.
1) Preparation of 2.5-fold CDK4/D3 kinase solution
7 μL of CDK4/D3 enzyme solution and 9 μL of 1M DTT stock solution were added to 1784 μL of 1-fold CDK4 kinase buffer solution, and the resulting solution was mixed well.
1) Preparation of 2.5-fold CDK4/D3 polypeptide solution
10 µL of 100 mM ATP stock solution, 45 μL of 1M MgCl2 stock solution and 45 μL of FAM-labelled polypeptide 8 were added to 1700 μL of 1-fold CDK4 kinase buffer solution, and the resulting solution was mixed well.
(§3) A 10 mM solution of the test compound in DMSO was diluted with DMSO to obtain a solution with a concentration of 50 μM, which was used as the stock solution. Said stock solution was subjected to 4-fold gradient dilution with DMSO to obtain solutions with a concentration of […], 3.12 μM, 0.78 μM, 0.19 μM, 0.048 μM, 12.2 nM, 3 nM, 0.76 nM and 0.19 nM, respectively. Each of the resulting solution was 10-fold diluted with 1-fold kinase buffer solution to obtain a 5-fold compound solution.
(§4) 1) 5 μL of the prepared 5-fold test compound solution and 10 μL of the prepared 2.5-fold kinase solution were added to the corresponding wells in a 384-well plate, and the plate was incubated at room temperature for 10 minutes.
(§5) 2) 10 μL of the prepared 2.5-fold polypeptide solution was added to the corresponding wells to start the enzymatic reaction, and the plate was incubated at 28° C. for 5 hours.
(§6) 25 μL of stop solution was added to each corresponding well to stop the reaction.
(§7) 8. The data was read by the Caliper device, the inhibition rate was calculated by the following formula, and curve fitting was carried out by GraphPad5.0 software to obtain the IC50 value.

For a further data set, the target named is CDK6/D3 (Homo sapiens, UniProt Q00534). The experiment in a line: Inhibitory activity on CDK6 kinase by Caliper Mobility Shift method. It is filed as biochemical. The note with it: CDK6/D3, 28° C. for 5 hours. As for the experimental part: as §1
Sequence of CDK6/D3 (Q00534 whole entry, species assumed): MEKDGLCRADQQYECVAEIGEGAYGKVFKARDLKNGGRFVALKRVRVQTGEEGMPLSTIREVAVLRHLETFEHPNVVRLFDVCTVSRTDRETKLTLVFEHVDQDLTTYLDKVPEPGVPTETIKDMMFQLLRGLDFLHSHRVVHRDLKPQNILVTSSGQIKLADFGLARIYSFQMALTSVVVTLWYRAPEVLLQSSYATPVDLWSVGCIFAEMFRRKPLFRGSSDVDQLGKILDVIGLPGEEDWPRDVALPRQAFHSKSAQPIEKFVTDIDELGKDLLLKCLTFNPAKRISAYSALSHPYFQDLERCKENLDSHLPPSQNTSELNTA
Sequence of CDK6/D3 (P30281 whole entry partner, species assumed): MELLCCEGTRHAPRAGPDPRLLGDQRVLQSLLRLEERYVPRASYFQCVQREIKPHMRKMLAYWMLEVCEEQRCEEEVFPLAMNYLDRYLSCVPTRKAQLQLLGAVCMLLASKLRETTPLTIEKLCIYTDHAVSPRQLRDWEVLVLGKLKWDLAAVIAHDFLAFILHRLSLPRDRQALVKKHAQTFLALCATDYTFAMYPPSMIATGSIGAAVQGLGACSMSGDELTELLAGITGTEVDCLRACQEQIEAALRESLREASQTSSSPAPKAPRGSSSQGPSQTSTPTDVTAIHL
2) Preparation of 1-fold CDK6 kinase buffer solution
50 mL of 1000 mM HEPES stock solution (pH 7.5) and 50 μL of 30% Brij-35 stock solution were added to 949.95 mL of ultra pure water, and the resulting solution was mixed well.
as §2
2) Preparation of 2.5-fold CDK6/D3 kinase solution 18 μL of CDK6/D3 enzyme solution and 14 μL of 1M DTT stock solution were added to 2768 μL of 1-fold CDK6 kinase buffer solution, and the resulting solution was mixed well.
2) Preparation of 2.5-fold CDK6/D3 polypeptide solution
23 μL of 100 mM ATP stock solution, 75 μL of 1M MgCl2 stock solution and 75 μL of FAM-labelled polypeptide 8 were added to 2827 μL of 1-fold CDK6 kinase buffer solution, and the resulting solution was mixed well.
as §3, §4, §5, §6, §7

The subject of another data set is MCF-7 cells. The experiment in a line: In vitro cell proliferation assay by BrdU method. The data set is classed as cell-based. The note with it: Homo sapiens, MCF7, 72 hours, 10% FBS. As for the experimental part:
In Vitro Cell Inhibitory Activity of the Compound of the Present Invention
Experimental method: Cell proliferation assay was carried out by BrdU method (BrdU cell proliferation assay kit, Cell Signaling Technology Co.)
Preparation of gradient dilution solution of test compound: the 10 mM stock solution of test compound was subjected to 4-fold serial gradient dilution with DMSO to obtain solutions with a concentration of 2.5 mM, […], respectively. 2 μL of DMSO-diluted compound was added to 198 μL of culture medium containing 10% FBS to obtain 10-fold test compound, wherein the maximum concentration of the test compound was 10 μM, the DMSO concentration was 1%, with a total of 7 concentration gradients.
MCF-7 culture medium: DMEM+10% FBS+0.01 mg/mL insulin
(1) Cells grown to 80% (in exponential growth phase) were digested with pancreatin, and were collected by centrifugation. MDA-MB-435S cells and U87MG cells were re-suspended in a FBS-free culture medium, counted and inoculated to a 96-well plate; MDA-MB-435S cells were inoculated at 3000 cells/well/81 μL, and U87MG cells were inoculated at 4000 cells/well/81 μL. MCF-7 cells were resuspended in a culture medium containing 1% FBS, counted and inoculated to a 96-well plate at 4000 cell/well/82 μL. The cells were incubated in a cell incubator at 37° C.
(2) After 24 hours of incubation, FBS (9 μL) was added to each well of the MDA-MB-435S cells and U87MG cells, and 8 μL of FBS was added to each well of the MCF-7 cells, so as to obtain a final FBS concentration of 10%.
(3) A different concentration of 10-fold test compound (10 μL) was added to each well to obtain a final concentration of test compound of 10 μM, 2.5 μM, 625 nM, 156 nM, 39 nM, 9.8 nM or 2.5 nM, respectively, with 3 repeated wells/group, and the cells were incubated at 37° C. for 72 hours.
(4) 10-fold BrdU solution (10 μL) was added to each well, and the cells were incubated in the incubator for 4 hours, followed by discarding the culture medium.
(5) Fixing/denaturation solution (10 μL) was added to each well, and the cells were incubated at room temperature for 30 minutes, followed by discarding the solution.
(6) 1-fold detection antibody solution (100 μL) was added to each well, the cells were incubated at room temperature for 1 hour, followed by discarding the solution, and the cells were washed with 1-fold washing solution (200 μL/well) three times.
(7) 1-fold HRP-labelled secondary antibody solution (100 μL) was added to each well, the cells were incubated at room temperature for 30 minutes, followed by discarding the solution, and the cells were washed with 1-fold washing solution (200 μL/well) three times.
(8) TMB substrate solution (100 μL) was added to each well, and the cells were incubated at room temperature for 30 minutes.
(9) Stop solution (100 μL) was added to each well, and the OD value at 450 nm was measured by a microplate reader.
1) Cell survival rate (%)=(ODtest compound−ODblank control)/(ODnormal cell control−ODblank control)×100%,
2) The data was processed by GraphPad Prism 5 software to obtain the curve and IC50 values.

The record followed here is patent US20220017520A1, “MACROCYCLIC COMPOUND AS CDK INHIBITOR, PREPARATION METHOD THEREFOR, AND USE THEREOF IN MEDICINE” (Keythera (Suzhou) Pharmaceuticals Co. Ltd., priority 2018, published 2022).

Like-named read-outs stand apart in the source and are kept apart here.

A word on the IC50: it is the concentration that gives 50% inhibition.

Sequence of CDK4/D3 (P11802 whole entry, species assumed): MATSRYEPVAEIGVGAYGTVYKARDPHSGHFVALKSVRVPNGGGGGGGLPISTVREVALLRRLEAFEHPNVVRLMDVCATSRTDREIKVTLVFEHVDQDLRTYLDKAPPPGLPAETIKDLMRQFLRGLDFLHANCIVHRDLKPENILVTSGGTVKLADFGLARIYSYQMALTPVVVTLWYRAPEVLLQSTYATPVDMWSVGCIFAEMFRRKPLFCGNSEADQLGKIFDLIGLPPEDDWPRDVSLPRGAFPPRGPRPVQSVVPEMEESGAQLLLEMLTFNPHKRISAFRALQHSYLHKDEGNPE
Sequence of CDK4/D3 (P30281 whole entry partner, species assumed): as the sequence (P30281 whole entry partner, species assumed) above

`CCN1CCN(Cc2cnc3cc2NC(=O)CC(C)n2c(C)nc4c(F)cc(cc42)-c2nc(ncc2F)N3)CC1` (stereo not drawn) [Example 1, 4^5-((4-Ethylpiperazin-1-yl)methyl)-1^4,2^5-difluoro-1^2,8-dimethyl-1^1H-3,5-diaza-1(6,1)-benzo[d]imidazola-2(4,2)-pyrimidina-4(2,4)-pyridinacyclooctaphan-6-one] gave a ring closure, yield of all isomers in data set [1] (from CCN1CCN(Cc2cnc(Nc3ncc(F)c(-c4cc(F)c5nc(C)n(C(C)CC(=O)O)c5c4)n3)cc2N)CC1, 14.0 mM) of 8.3%. Besides, the figures for the half-inhibitory concentration (IC50) at CDK4/D3, on CDK6/D3 and in the data set with MCF-7 cells were 0.7 nM, 0.48 nM and 142 nM, respectively.
As for `CCN1CCN(Cc2cnc3cc2NC(=O)CC(C)n2ccc4ccc(cc42)-c2nc(ncc2F)N3)CC1` (stereo not drawn) [Example 7, 4^5-((4-Ethylpiperazin-1-yl)methyl)-2^5-fluoro-8-methyl-1^1H-3,5-diaza-1(6,1)-indola-2(4,2)-pyrimidina-4(2,4)-pyridinacyclo-octaphan-6-one], the ring closure, yield of all isomers in data set [1] (from CCN1CCN(Cc2cnc(Nc3ncc(F)c(-c4ccc5ccn(C(C)CC(=O)O)c5c4)n3)cc2N)CC1, 14.0 mM) stood at 33.3%. In addition, the results for the half-inhibitory concentration (IC50) on CDK4/D3 and at CDK6/D3 were 1.5 nM and 2.5 nM, respectively.
For the molecule `CCN1CCN(Cc2cnc3cc2NC(=O)CCn2c(C)nc4c(F)cc(cc42)-c2nc(ncc2F)N3)CC1` [Example 4, 4^5-((4-Ethylpiperazin-1-yl)methyl)-1^4,2^5-difluoro-1^2-methyl-1^1H-3,5-diaza-1(6,1)-benzo[d]imidazola-2(4,2)-pyrimidina-4(2,4)-pyridinacyclooctaphan-6-one], the ring closure, yield of all isomers in data set [1] (from CCN1CCN(Cc2cnc(Nc3ncc(F)c(-c4cc(F)c5nc(C)n(CCC(=O)O)c5c4)n3)cc2N)CC1, 18.0 mM) came out at 7.3%. Besides, the IC50 at CDK4/D3 stood at 0.78 nM; on CDK6/D3 it was 1.13 nM; in the data set on MCF-7 cells, 132 nM.
Take `CCN1CCN(Cc2cnc3cc2NC(=O)CC(C)(C)n2c(C)nc4c(F)cc(cc42)-c2nc(ncc2F)N3)CC1` [Example 8, 4^5-((4-Ethylpiperazin-1-yl)methyl)-1^4,2^5-difluoro-1^2,8,8-trimethyl-1^1H-3,5-diaza-1(6,1)-benzo[d]imidazola-2(4,2)-pyrimidina-4(2,4)-pyridinacyclooctaphan-6-one]: the 50% inhibitory concentration (IC50) is 8 nM on CDK4/D3 and 10 nM at CDK6/D3.
In the same order, the values of `CCN1CCN(Cc2cnc3cc2NC(=O)CC2(CC2)n2c(C)nc4c(F)cc(cc42)-c2nc(ncc2F)N3)CC1` [Example 9, 5′-((4-Ethylpiperazin-1-yl)methyl)-4′,5′-difluoro-2′-methylspiro[cyclopropane-1,8′-3,5-diaza-1(6,1)-benzo[d]imidazola-2(4,2)-pyrimidina-4(2,4)-pyridinacyclooctaphan]-6′-one] are 5 nM and 12 nM.
On to `CCN1CCN(Cc2cnc3cc2NC(=O)C[C@H](C)n2c(C)nc4c(F)cc(cc42)-c2nc(ncc2F)N3)CC1` [Example 3, (S)-4^5-((4-Ethylpiperazin-1-yl)methyl)-1^4,2^5-difluoro-1^2,8-dimethyl-1^1H-3,5-diaza-1(6,1)-benzo[d]imidazola-2(4,2)-pyrimidina-4(2,4)-pyridinacyclooctaphan-6-one], for which the concentration for half-maximal inhibition (IC50) at CDK4/D3 turned out to be 15 nM; on CDK6/D3 it was 27 nM; in the data set with MCF-7 cells it was 4120 nM.
Take `CCN1CCN(Cc2cnc3cc2NC(=O)C[C@@H](C)n2c(C)nc4c(F)cc(cc42)-c2nc(ncc2F)N3)CC1` [Example 2, (R)-4^5-((4-Ethylpiperazin-1-yl)methyl)-1^4,2^5-difluoro-1^2,8-dimethyl-1^1H-3,5-diaza-1(6,1)-benzo[d]imidazola-2(4,2)-pyrimidina-4(2,4)-pyridinacyclooctaphan-6-one]: in data set [1] (from CCN1CCN(Cc2cnc(Nc3ncc(F)c(-c4cc(F)c5nc(C)n([C@H](C)CC(=O)O)c5c4)n3)cc2N)CC1, 13.8 mM), the ring closure, yield of all isomers turned out to be 7.4%. Besides, the IC50 is 0.49 nM at CDK4/D3, 0.35 nM on CDK6/D3 and 42 nM with MCF-7 cells.
On to `CCN1CCN(Cc2cnc3cc2NCCC(C)n2c(C)nc4c(F)cc(cc42)-c2nc(ncc2F)N3)CC1` (stereo not drawn) [Example 5, 4^5-((4-Ethylpiperazin-1-yl)methyl)-1^4,2^5-difluoro-1^2,8-dimethyl-1^1H-3,5-diaza-1(6,1)-benzo[d]imidazola-2(4,2)-pyrimidina-4(2,4)-pyridinacyclooctaphane], for which the IC50 at CDK4/D3 was 21 nM; on CDK6/D3 it was 14 nM.
